What was measured:
[1] = target: T1, SIK1 kinase (aa1-303, Thermo Fisher) (Homo sapiens, UniProt P57059); test: Biochemical activities determination for SIK1 protein (TR-FRET); conditions: 110 uM ATP, 0.5 μM STK1 substrate
T1 construct: SIK1 kinase (aa1-303, Thermo Fisher); purchased Thermo Fisher
Protocol: 1. Biochemical Activities Determination for SIK1 Protein
(§1) Compounds were tested for inhibition of SIK1 kinase (aa1-303, Thermo Fisher) in assays based on the time-resolved fluorescence-resonance energy transfer (TR-FRET) methodology. The assays were carried out in 384-well low volume white plates in a reaction mixture containing SIK1 kinase, 110 uM ATP, 0.5 μM STK1 substrate and 0-10 μM compound in buffer containing 25 mM Tris, 0.01% Trition X-100, 0.5 mM EGTA, 5 mM MgCl2, 2.5 mM DTT, pH=7.5. The kinase was incubated with compounds for 60 minutes at room temperature and the reaction was initiated by the addition of ATP and STK1 substrate. After reaction at room temperature for 180 minutes, an equal volume of stop/detection solution was added according to the manufacture's instruction (CisBio Bioassays). The stop/detection solution contained STK Antibody-Cryptate and XL665-conjugated streptavidin (Cat: 62ST1PEC, Cisbio) in Detection Buffer (Cat: 62SDBRDF, Cisbio). Plates were sealed and incubated at room temperature for overnight, and the TR-FRET signals (ratio of fluorescence emission at 665 nm over emission at 620 nm with excitation at 337 nm wavelength) were recorded on a PHERAstar FS plate reader (BMG Labtech). Phosphorylation of STK1 substrate led to the binding of STK Antibody-Cryptate to the biotinylated SIK1 substrate, which places fluorescent donor (Eu^3+ crypate) in close proximity to the accepter (Streptavidin-XL665), thus resulting in a high degree of fluorescence resonance energy transfer from the donor fluorophore (at 620 nm) to the acceptor fluorophore (at 665 nm). […] The IC50 for each compound was derived from fitting the data to the four-parameter logistic equation by Dotmatics.

[2] = target: T2, SIK2 kinase (full length, Thermo Fisher) (Homo sapiens, UniProt Q9H0K1); test: Biochemical activities determination for SIK2 protein (TR-FRET); conditions: 80 uM ATP, 0.5 μM substrate
T2 construct: SIK2 kinase (full length, Thermo Fisher); purchased Thermo Fisher
Protocol: 2. Biochemical Activities Determination for SIK2 Protein
as §1, with “of SIK2” for “of SIK1”, “kinase (full length,” for “kinase (aa1-303,”, “containing SIK2” for “containing SIK1”, “kinase, 80” for “kinase, 110”, “μM […]” for “μM STK1”, “biotinylated STK1” for “biotinylated SIK1”

[3] = target: T3, SIK3 kinase (aa59-365, Thermo Fisher) (Homo sapiens, UniProt Q9Y2K2); test: Biochemical activities determination for SIK3 protein (TR-FRET); conditions: 125 uM ATP, 0.5 μM STK1 substrate
T3 construct: SIK3 kinase (aa59-365, Thermo Fisher); purchased Thermo Fisher
Protocol: 3. Biochemical Activities Determination for SIK3 Protein
Compounds were tested for inhibition of SIK3 kinase (aa59-365, Thermo Fisher) in assays based on the time-resolved fluorescence-resonance energy transfer (TR-FRET) methodology. The assays were carried out in 384-well low volume white plates in a reaction mixture containing SIK3 kinase, 125 uM ATP, 0.5 μM STK1 substrate and 0-10 μM compound in buffer containing 25 mM Tris, 0.01% Trition X-100, 0.5 mM EGTA, 5 mM MgCl2, 2.5 mM DTT, PH=7.5. The kinase was incubated with compound for 60 minutes at room temperature and the reaction was initiated by the addition of ATP and STK1 substrate. After reaction at room temperature for 180 minutes, an equal volume of stop/detection solution was added according to the manufacture's instruction (CisBio Bioassays). The stop/detection solution contained STK Antibody-Cryptate and XL665-conjugated streptavidin (Cat: 62ST1PEC, Cisbio) in Detection Buffer (Cat: 62SDBRDF, Cisbio). Plates were sealed and incubated at room temperature for overnight, and the TR-FRET signals (ratio of fluorescence emission at 665 nm over emission at 620 nm with excitation at 337 nm wavelength) were recorded on a PHERAstar FS plate reader (BMG Labtech). Phosphorylation of STK1 substrate led to the binding of STK Antibody-Cryptate to the biotinylated STK1 substrate, which places fluorescent donor (Eu^3+ crypate) in close proximity to the accepter (Streptavidin-XL665), thus resulting in a high degree of fluorescence resonance energy transfer from the donor fluorophore (at 620 nm) to the acceptor fluorophore (at 665 nm). […] The IC50 for each compound was derived from fitting the data to the four-parameter logistic equation by Dotmatics.

T3 sequence (Q9Y2K2 59-365): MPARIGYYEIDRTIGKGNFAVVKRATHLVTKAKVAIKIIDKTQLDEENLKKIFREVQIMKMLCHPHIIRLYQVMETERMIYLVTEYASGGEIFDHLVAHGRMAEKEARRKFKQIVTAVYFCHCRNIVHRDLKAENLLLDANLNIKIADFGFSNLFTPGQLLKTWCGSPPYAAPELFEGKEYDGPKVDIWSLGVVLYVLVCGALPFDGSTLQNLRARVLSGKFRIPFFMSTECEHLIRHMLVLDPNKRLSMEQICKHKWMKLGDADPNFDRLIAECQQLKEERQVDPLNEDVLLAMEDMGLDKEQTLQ
T1 sequence (P57059 1-303): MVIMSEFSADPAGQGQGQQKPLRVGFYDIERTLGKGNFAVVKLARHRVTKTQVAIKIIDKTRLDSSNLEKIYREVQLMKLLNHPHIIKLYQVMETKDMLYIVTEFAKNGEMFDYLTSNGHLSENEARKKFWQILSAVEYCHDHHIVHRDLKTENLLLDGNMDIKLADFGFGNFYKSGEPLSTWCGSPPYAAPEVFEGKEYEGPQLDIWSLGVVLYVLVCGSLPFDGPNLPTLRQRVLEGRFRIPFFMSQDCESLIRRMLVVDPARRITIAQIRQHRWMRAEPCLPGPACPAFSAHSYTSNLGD
T2 sequence (Q9H0K1 whole entry): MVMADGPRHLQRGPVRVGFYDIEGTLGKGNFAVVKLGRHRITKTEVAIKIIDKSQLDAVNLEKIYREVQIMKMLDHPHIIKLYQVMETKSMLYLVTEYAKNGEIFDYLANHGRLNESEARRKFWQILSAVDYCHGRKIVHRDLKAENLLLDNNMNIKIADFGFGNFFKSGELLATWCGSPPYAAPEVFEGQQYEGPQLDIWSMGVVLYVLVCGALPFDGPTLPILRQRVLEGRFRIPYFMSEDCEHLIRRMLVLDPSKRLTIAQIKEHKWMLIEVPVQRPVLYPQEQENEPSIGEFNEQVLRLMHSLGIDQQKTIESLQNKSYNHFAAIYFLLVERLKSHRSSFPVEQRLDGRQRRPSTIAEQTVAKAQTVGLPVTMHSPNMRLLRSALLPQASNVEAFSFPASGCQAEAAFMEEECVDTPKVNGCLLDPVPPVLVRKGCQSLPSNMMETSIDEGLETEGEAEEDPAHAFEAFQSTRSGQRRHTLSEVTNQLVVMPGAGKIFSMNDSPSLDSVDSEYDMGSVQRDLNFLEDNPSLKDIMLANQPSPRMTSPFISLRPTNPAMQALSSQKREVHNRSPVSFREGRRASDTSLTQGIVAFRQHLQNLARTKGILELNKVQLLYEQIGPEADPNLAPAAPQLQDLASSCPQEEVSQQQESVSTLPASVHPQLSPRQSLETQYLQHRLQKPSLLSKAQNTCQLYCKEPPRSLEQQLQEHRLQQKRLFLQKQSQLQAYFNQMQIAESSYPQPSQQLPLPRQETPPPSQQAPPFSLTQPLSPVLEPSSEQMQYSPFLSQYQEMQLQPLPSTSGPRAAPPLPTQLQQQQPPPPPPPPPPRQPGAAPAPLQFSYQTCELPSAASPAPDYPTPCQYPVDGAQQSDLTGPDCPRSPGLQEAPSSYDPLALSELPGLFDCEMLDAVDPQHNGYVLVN

Structure (SMILES) | IC50 [1] [nM] | IC50 [2] [nM] | IC50 [3] [nM]
COc1cc(-c2coc3cc(OCCN4CCCC4)ccc23)cc(OC(F)F)c1C(=O)NC1CC1(F)F (stereo not drawn) [Compound 100, N-(2,2-difluorocyclopropyl)-2-(difluoromethoxy)-6-methoxy-4-(6-(2-(pyrrolidin-1-yl)ethoxy)benzofuran-3-yl)benzamide] | 3590 | 31 | 80
CN1CC[C@H](Oc2cc(-c3coc4cc(OCCN5CCCC5)ccc34)cc(OC(F)F)c2C(=O)NC2CC2)C1 [Compound 111, (S)—N-cyclopropyl-2-(difluoromethoxy)-6-((1-methylpyrrolidin-3-yl)oxy)-4-(6-(2-(pyrrolidin-1-yl)ethoxy)benzofuran-3-yl)benzamide] | > 10000 | 1190 | 5700
COc1cc(-c2coc3cc(OCCN4CCCCC4)ccc23)cc(OC(F)F)c1C(=O)N[C@@H]1C[C@@H]1F [Compound 70, 2-(difluoromethoxy)-N-((1R,2S)-2-fluorocyclopropyl)-6-methoxy-4-(6-(2-(piperidin-1-yl)ethoxy)benzofuran-3-yl)benzamide] | 2950 | 14 | 42
COc1cc(-c2coc3cc(OCCN4CCCC4C(F)(F)F)ccc23)cc(OC(F)F)c1C(=O)N[C@@H]1C[C@@H]1F (stereo partly drawn) [Compound 95, 2-(difluoromethoxy)-N-((1R,2S)-2-fluorocyclopropyl)-6-methoxy-4-(6-(2-(2-(trifluoromethyl)pyrrolidin-1-yl)ethoxy)benzofuran-3-yl)benzamide] | > 10000 | 507 | 117
COc1cc(-c2coc3cc(OCCN4CCCC4)ccc23)cc(OC(F)F)c1C(=O)N[C@@H]1C[C@H]1F [Compound 97, 2-(difluoromethoxy)-N-((1R,2R)-2-fluorocyclopropyl)-6-methoxy-4-(6-(2-(pyrrolidin-1-yl)ethoxy)benzofuran-3-yl)benzamide] | 8350 | 85 | 289
O=C(NC1CC1)c1c(OC(F)F)cc(-c2coc3cc(OCCN4CCCC4)ccc23)cc1OC1CC1 [Compound 121, 2-cyclopropoxy-N-cyclopropyl-6-(difluoromethoxy)-4-(6-(2-(pyrrolidin-1-yl)ethoxy)benzofuran-3-yl)benzamide] | > 10000 | 438 | 2120
COc1cc(-c2coc3cc(-c4cnn(C)c4)c(F)cc23)cc2c1C(=O)N(CC(F)(F)F)CC2 [Example 12, 6-(5-fluoro-6-(1-methyl-1H-pyrazol-4-yl)benzofuran-3-yl)-8-methoxy-2-(2,2,2-trifluoroethyl)-3,4-dihydroisoquinolin-1 (2H)-one] | 2280 | 59 | 186
COc1cc(-c2coc3cc(-c4cnn(C)c4)ccc23)cc2c1C(=O)N(Cc1ccncc1)CC2 [Compound 30, 8-methoxy-6-(6-(1-methyl-1H-pyrazol-4-yl)benzofuran-3-yl)-2-(pyridin-4-ylmethyl)-3,4-dihydroisoquinolin-1 (2H)-one] | 2610 | 531 | 1110
COc1cc(-c2coc3cc(OCCN4CCC(C)(C)C4)ccc23)cc(OC(F)F)c1C(=O)N[C@@H]1C[C@@H]1F [Compound 93, 2-(difluoromethoxy)-4-(6-(2-(3,3-dimethylpyrrolidin-1-yl)ethoxy)benzofuran-3-yl)-N-((1R,2S)-2-fluorocyclopropyl)-6-methoxybenzamide] | 2530 | 30 | 60
O=C1c2c(cc(-c3coc4cc(-c5cnn(C6CCNC6)c5)ccc34)cc2OC(F)F)CCN1CC(F)(F)F (stereo not drawn) [Compound 48, 8-(difluoromethoxy)-6-(6-(1-(pyrrolidin-3-yl)-1H-pyrazol-4-yl)benzofuran-3-yl)-2-(2,2,2-trifluoroethyl)-3,4-dihydroisoquinolin-1 (2H)-one] | 524 | 11 | 63
COc1cc(-c2coc3cc(-c4cnn(C)c4)ccc23)cc2c1C(=O)N(Cc1ccccc1)CC2 [Compound 31, 2-benzyl-8-methoxy-6-(6-(1-methyl-1H-pyrazol-4-yl)benzofuran-3-yl)-3,4-dihydroisoquinolin-1 (2H)-one] | 5450 | 673 | 882
COc1cc(-c2coc3cc(OCCN(C)C)ccc23)cc(OC(F)F)c1C(=O)N[C@@H]1C[C@@H]1F [Compound 73, 2-(difluoromethoxy)-4-(6-(2-(dimethylamino)ethoxy)benzofuran-3-yl)-N-((1R,2S)-2-fluorocyclopropyl)-6-methoxybenzamide] | 3260 | 24 | 65
COc1cc(-c2coc3cc(OCCN4CC[C@H](OC)C4)ccc23)cc(OC(F)F)c1C(=O)N[C@@H]1C[C@@H]1F [Compound 82, 2-(difluoromethoxy)-N-((1R,2S)-2-fluorocyclopropyl)-6-methoxy-4-(6-(2-((S)-3-methoxypyrrolidin-1-yl)ethoxy)benzofuran-3-yl)benzamide] | 1470 | 15 | 57
COc1cc(-c2coc3cc(OCCCN4CCCC4)ccc23)cc(OC(F)F)c1C(=O)N[C@@H]1C[C@@H]1F [Compound 72, 2-(difluoromethoxy)-N-((1R,2S)-2-fluorocyclopropyl)-6-methoxy-4-(6-(3-(pyrrolidin-1-yl)propoxy)benzofuran-3-yl)benzamide] | 461 | 6 | 31
COc1cc(-c2coc3cc(OCCN4CCCC[C@H]4C)ccc23)cc(OC(F)F)c1C(=O)N[C@@H]1C[C@@H]1F [Compound 92, 2-(difluoromethoxy)-N-((1R,2S)-2-fluorocyclopropyl)-6-methoxy-4-(6-(2-((R)-2-methylpiperidin-1-yl)ethoxy)benzofuran-3-yl)benzamide] | 3010 | 32 | 104
COc1cc(-c2coc3cc(-c4cn(C)nc4OC)ccc23)cc2c1C(=O)N(CC(F)(F)F)CC2 [Compound 19, 8-methoxy-6-(6-(3-methoxy-1-methyl-1H-pyrazol-4-yl)benzofuran-3-yl)-2-(2,2,2-trifluoroethyl)-3,4-dihydroisoquinolin-1 (2H)-one] | 3130 | 80 | 132

From patent publication US20260085053A1, “BENZOFURAN DERIVATIVES AS SIK INHIBITORS AND THE USE THEREOF” (BEONE MEDICINES I GMBH, priority 2023, published 2026)
